This note sets out measurements from US20090030066A1, “SMALL MOLECULES FOR THE PROTECTION OF PANCREATIC CELLS” (priority 2007, published 2009).

For experiment [1], the system named is STZ-treated mice. The experiment is described as follows: Blood glucose and body weight in STZ-treated mice, first experiment (not fasted). The following applies: for Body weight: STZ 210 mg/kg + compound 4.5 mg/kg i.p., unit not given, in g; for protection of islet β-cells: STZ-induced type 1 diabetes model; for effect on STZ-induced rise of blood glucose: STZ-treated animals, 4.5 mg/kg i.p.; for effect on STZ-induced body weight loss: STZ-treated mice, to day 10. The format is in vivo. As to the method: Male C57BL/6 mice (12 weeks old) were housed in a specific pathogen-free facility with a 12-h light/dark cycle and given free access to food and water. Animals weighing between 28-31 g were selected for the experiments. In each group, at the start of experiment the body weight among individual animals differed by less than 1-g.
One group of mice received no treatment over the entire experiment. A second group received only 4.5 mg per kg of CCompound1 on days −2, −1, 0, +1, +2, +3, +4, +5, +6 and +7. A third/fourth/fifth/sixth group of animals were treated i.p. with 210 mg/kg of STZ on day 0. The fourth, fifth, and sixth group of animals also received 4.5 mg per kg each of CCompound1 (CC1; 4th group) or CCompound3 (CC3; 5th group), or CCompound19 (CC19; 6th group) on days −2, −1, 0, +1, +2, +3, +4, +5, +6 and +7 (with STZ treatment given on day 0). Each group consisted of 7 animals. Body weight was measured regularly.
CC compounds were dissolved in physiological saline while STZ was dissolved in 100 mM sodium citrate (pH 4.5). All compounds were injected intraperitoneally in 0.5 ml volume. Control animals were injected physiological saline (0.5 ml) on the same days when other groups were treated with CC compounds.
Blood samples were taken from the eye (canthus) of the animals on days −1, 0, +1, +2, +3, +7 and +10, and glucose concentrations in whole blood samples were immediately measured with the commercially available fast Glucose C test. The animals were not fasted prior to taking the blood samples. The results are expressed as the mean values from 7 animals ±std. dev. (S.D.).

In experiment [2] the test system is STZ-treated mice. Nature of the experiment: STZ-treated mice, second experiment: body weight to day 80 and survival. The format is in vivo. The following applies: STZ + compound. An excerpt:
In a second similar experiment performed with 6 mice in each group, the changes in body weight were followed for up to 80 days (when the last STZ-treated mouse died), and survival was followed for up to 100 days.
For the body weight (on the 80th day) and survival the following values were obtained: Untreated (6 survivors), 37.7 g; STZ-treated (one last survivor died on day 80, others survived for 22, 25, 27, 60, 75 days), 26.0 g; CCompound1-treated (6 survivors), 36.0 g; STZ+CCompound1 treated (6 survivors), 33.4 g; STZ+CCompound3-treated (5 survivors; one mouse died on day 78), 32.5 g. At the start of the experiment (day 0), the average body weight ranged from 28.6 to 29.8 g. Accordingly, by day 80, STZ-treated animals that were also treated with CCompound1 and CCompound3 gained about 50% of the weight gained by the untreated animals.

The subject of experiment [3] is AR42J rat pancreatic tumor cell line. The experiment is described as follows: MTT proliferation of AR42J pancreatic tumor cells. The format is cell-based. The following applies: 96 h. An excerpt:
In the Examples below, an MTT assay was used to determine the relative number of viable cells after treatments. This calorimetric assay is based on the ability of living cells, but not dead cells, to reduce 3-(4,5-dimethyl thiazol-2-yl)-2,5-diphenyltetrazolium bromide. [Carmichael, J, De Graff, W. G., Gazdar, A. F., Minna, J. D. and Mitchell, J. B. (1987) Evaluation of tetrazolium-based semiautomated calorimetric assay: Assessment of chemosensitivity testing. Cancer Res. 47, 936-942], which is hereby incorporated by reference. For this assay, cells were plated in 96-well plates, and the MTT assay was performed as described in the above article both in untreated and treated cell cultures. The MTT assay also was performed at the time when the treatment was started to allow for assessment of the proliferation and survival rates in the control and treated cell cultures. In the MTT assay, higher values mean proportionally higher numbers of viable cells.
The AR42J rat pancreatic tumor cell line, purchased from ATTC (catalog number: CRL-1492), was propagated in modified Ham's medium containing 20% fetal bovine serum. These cells, derived from a transplantable tumor of the exocrine pancreas, contain significant amounts of amylase and other exocrine enzymes and they produce tumors in athymic mice.
For the experiment, cells were split in 96-well plates at 15,000 cells per well. After 24 hours, the medium was changed for fresh medium (0 hour) and various concentrations of CCompound1 and CCompound3 were added and incubations continued for 96 hours. The MTT assay was used to determine the relative number of viable cells. From the data shown in TABLE 13, in the 2-25 μM concentration range CC compounds had only inhibitory effects on the proliferation of pancreatic cancer cells.

Setting [4] is: STZ 210 mg/kg i.p. day 0 + compound 4.5 mg/kg i.p. days −2 to +7, day 0.
Setting [5] is: STZ 210 mg/kg i.p. day 0 + compound 4.5 mg/kg i.p. days −2 to +7, day +1.
The mark [6] stands for this setting: STZ 210 mg/kg i.p. day 0 + compound 4.5 mg/kg i.p. days −2 to +7, day +2.
Setting [7] is: STZ 210 mg/kg i.p. day 0 + compound 4.5 mg/kg i.p. days −2 to +7, day +3.
Where [8] appears, read: STZ 210 mg/kg i.p. day 0 + compound 4.5 mg/kg i.p. days −2 to +7, day +7.
Setting [9] is: STZ 210 mg/kg i.p. day 0 + compound 4.5 mg/kg i.p. days −2 to +7, day +10.
[10] abbreviates: STZ 210 mg/kg i.p. day 0 + compound 4.5 mg/kg i.p. days −2 to +7, day −1.

Consider `C[N+](C)(C)CCC=C1c2ccccc2Sc2ccccc21.[I-]` [CCcompound19, N,N,N-trimethyl-3-(9H-thioxanthen-9-ylidene)-propane-1-aminium iodide], for which the Body weight in the experiment with STZ-treated mice [1] (day 0) came out at 28.1 ± 0.5; in the experiment with STZ-treated mice [1] (day +1), 28.5 ± 1.2; with STZ-treated mice [1] (day +2) it was 26.4 ± 0.8; in the experiment on STZ-treated mice [1] (day +3) it was 26.8 ± 1.0; with STZ-treated mice [1] (day +7), 26.2 ± 0.9; in the experiment on STZ-treated mice [1] (day +10), 26.4 ± 1.7. Further, the Blood glucose stood at 4.8 ± 0.3 mM with STZ-treated mice [1] (setting [4]); 5.9 ± 0.6 mM in the experiment with STZ-treated mice [1] (setting [5]); 8.7 ± 0.8 mM in the experiment on STZ-treated mice [1] (setting [6]); 10.5 ± 0.9 mM in the experiment with STZ-treated mice [1] (setting [7]); 12.5 ± 1.1 mM in the experiment on STZ-treated mice [1] (setting [8]); 11.9 ± 1.1 mM in the experiment on STZ-treated mice [1] (setting [9]). For the same compound, the Blood glucose in the experiment with STZ-treated mice [1] (setting [10]) came out at 4.3 ± 0.3 mM. Besides, the “protection of islet β-cells” value in the experiment with STZ-treated mice [1] is reported as “protected islet β-cells”. Further, in the experiment on STZ-treated mice [1], the “effect on STZ-induced rise of blood glucose” value is listed as “prevent drastic increase in blood glucose level”. Also, in the experiment with STZ-treated mice [1], the “effect on STZ-induced body weight loss” value is “reduced the effect of STZ on body weight”.
As for `CC[N+](C)(CC)CCOCc1ccc2sc3ccccc3c(=O)c2c1` [CCcompound3], the Body weight with STZ-treated mice [1] (day 0) is 28.0 ± 0.9; in the experiment with STZ-treated mice [1] (day +1), 28.2 ± 0.8; with STZ-treated mice [1] (day +2), 25.3 ± 0.5; in the experiment with STZ-treated mice [1] (day +3), 25.3 ± 0.6; with STZ-treated mice [1] (day +7), 25.2 ± 0.9; in the experiment with STZ-treated mice [1] (day +10), 24.7 ± 1.3. The Blood glucose in the experiment with STZ-treated mice [1] (setting [4]) is listed as 4.7 ± 0.7 mM; in the experiment with STZ-treated mice [1] (setting [5]), 6.5 ± 0.7 mM; in the experiment on STZ-treated mice [1] (setting [6]), 10.7 ± 1.1 mM; with STZ-treated mice [1] (setting [7]), 13.0 ± 1.1 mM; in the experiment with STZ-treated mice [1] (setting [8]) it was 14.2 ± 1.3 mM; in the experiment on STZ-treated mice [1] (setting [9]), 13.6 ± 1.6 mM. The Blood glucose in the experiment with STZ-treated mice [1] (setting [10]) is recorded as 4.6 ± 0.5 mM. Further, in the experiment on STZ-treated mice [1], the “protection of islet β-cells” value was “clearly protected β-cell function”. In the experiment on STZ-treated mice [1], the “effect on STZ-induced rise of blood glucose” value was “prevent drastic increase in blood glucose level”. For the same compound, in the experiment on STZ-treated mice [1], the “effect on STZ-induced body weight loss” value is reported as “reduced the effect of STZ on body weight”. The “weight gained by day 80 relative to the weight gained by the untreated animals” value with STZ-treated mice [2] was “about 50%”. Besides, the “body weight on the 80th day” value in the experiment on STZ-treated mice [2] (6 mice per group) was 32.5 g. In the experiment with STZ-treated mice [2] (80th day, 6 mice per group), the survivors is 5. For the same compound, the A540 (MTT, relative number of viable cells) was 1.17 in experiment [3] (2 μM), 0.868 ± 0.093 in experiment [3] (5 μM), 0.745 ± 0.052 in experiment [3] (10 μM) and 0.675 ± 0.064 in experiment [3] (25 μM).
